Among the data in US11279683B2, “Thiophene derivatives as antiviral agents” (ENYO PHARMA, priority 2016, dated 2022) are IC50 values, retold here.

One may read the IC50 as the midpoint of a concentration-inhibition curve. The low end stands for higher potency, the high end for lower potency.

In the first assay the test system is H1N1 (influenza A/New Caledonia/20/99). The assay is described as follows: microbe, parasite or virus in culture. The format is cell-based.
Settings: not given
In the case of “2-[[6-tert-butoxycarbonyl-3-[(4-chlorophenyl)carbamoyl]-5,7-dihydro-4H-thieno[2,3-c]pyridin-2-yl]carbamoyl]cyclohexanecarboxylic acid [Compound 91]”, it took 10 µM to reach half-maximal inhibition (IC50).

The assay is the same for the next values; noted with them: Influenza A virus, H1N1, A549, 48 h.
In turn, `O=C(Nc1ccc(Cl)cc1)c1c(N2C(=O)C3CCCCC3C2=O)sc2c1CCC2` (centres unmarked) [Compound 54, N-(4-Chlorophenyl)-2-(1,3-dioxo-3a,4,5,6,7,7a-hexahydroisoindol-2-yl)-5,6-dihydro-4H-cyclopenta[b]thiophene-3-carboxamide] gave a 50% inhibitory concentration (IC50) of 5.98 µM.
On the same count and under the same terms, for `Cc1nccn1CC(=O)Nc1sc2c(c1C(=O)Nc1ccc(Cl)cc1)CCCC2` [Compound 75, N-(4-Chlorophenyl)-2-[[2-(2-methylimidazol-1-yl)acetyl]amino]-4,5,6,7-tetrahydrobenzothiophene-3-carboxamide] the value was 17.1 µM; for `O=C(Nc1ccc(F)cc1)c1c(NC(=O)C2CCCCC2C(=O)O)sc2c1CCC2` (centres unmarked) [Compound 4, 2-[[3-[(4-Fluorophenyl)carbamoyl]-5,6-dihydro-4H-cyclopenta[b]thiophen-2-yl]carbamoyl]cyclohexanecarboxylic acid], 15 µM.
Still for that read-out and setting: for `CONC(=O)[C@@H]1CCCC[C@@H]1C(=O)Nc1sc2c(c1C(=O)Nc1ccc(Cl)cc1)CCC2` (stereo in doubt) [Compound 88, N1-[3-[(4-chlorophenyl)carbamoyl]-5,6-dihydro-4H-cyclopenta[b]-thiophen-2-yl]-N2-methoxy-cyclohexane-1,2-dicarboxamide] the value was 8.4 µM; for `CC(C)c1cc(C(=O)Nc2ccccc2)c(NC(=O)C2CCCCC2C(=O)O)s1` (centres unmarked) [Compound 72, 2-[[5-Isopropyl-3-(phenylcarbamoyl)-2-thienyl]carbamoyl]cyclohexanecarboxylic acid], 9.92 µM; for `CS(=O)(=O)N[C@@H]1CCCC[C@@H]1C(=O)Nc1sc2c(c1C(=O)Nc1ccc(Cl)cc1)CCC2` [Compound 85, N-(4-chlorophenyl)-2-[[(1S,2R)-2-(methanesulfonamido)cyclohexanecarbonyl]amino]-5,6-dihydro-4H-cyclopenta[b]thiophene-3-carboxamide], 5.6 µM.
`O=C(Nc1ccc(OC(F)(F)F)cc1)c1c(NC(=O)C2CCCCC2C(=O)O)sc2c1CCC2` (centres unmarked) [Compound 20, 2-[[3-[[4-(Trifluoromethoxy)phenyl]carbamoyl]-5,6-dihydro-4H-cyclopenta[b]thiophen-2-yl]carbamoyl]cyclohexanecarboxylic acid] had a half-maximal inhibitory concentration (IC50) of 6.48 µM.
`O=C(Nc1cnc(Cl)cn1)c1c(NC(=O)C2CCCCC2C(=O)O)sc2c1CCC2` (centres unmarked) [Compound 26, 2-[[3-[(5-Chloropyrazin-2-yl)carbamoyl]-5,6-dihydro-4H-cyclopenta[b]thiophen-2-yl]carbamoyl]cyclohexanecarboxylic acid] displayed an IC50 of 19.3 µM.
Same read-out and setting: for `CC1OCc2sc(NC(=O)C3CCCCC3C(=O)O)c(C(=O)Nc3ccc(Cl)cc3)c21` (centres unmarked) [Compound 39, 2-[[3-[(4-Chlorophenyl)carbamoyl]-4-methyl-4,6-dihydrothieno[2,3-c]furan-2-yl]carbamoyl]cyclohexanecarboxylic acid] the value was 53.5 µM; for `O=C(Nc1ccc(Cl)cc1)c1c(NC(=O)C2CCCC2C(=O)O)sc2c1CCC2` (centres unmarked) [Compound 46, 2-[[3-[(4-Chlorophenyl)carbamoyl]-5,6-dihydro-4H-cyclopenta[b]thiophen-2-yl]carbamoyl]cyclopentanecarboxylic acid], 17.4 µM; for `COc1cccc(NC(=O)c2c(NC(=O)C3CCCCC3C(=O)O)sc3c2CCC3)c1` (centres unmarked) [Compound 64, 2-[[3-[(3-Methoxyphenyl)carbamoyl]-5,6-dihydro-4H-cyclopenta[b]thiophen-2-yl]carbamoyl]cyclohexanecarboxylic acid], 14.1 µM.
On the same count and under the same terms, for `CCCCCNC(=O)c1c(NC(=O)C2CCCCC2C(=O)O)sc2c1CCC2` (centres unmarked) [Compound 22, 2-[[3-(pentylcarbamoyl)-5,6-dihydro-4H-cyclopenta[b]thiophen-2-yl]carbamoyl]cyclohexanecarboxylic acid] the value was 20.3 µM; for `COc1ccc(NC(=O)c2c(NC(=O)C3CCCCC3C(=O)O)sc3c2CCC3)cc1` (centres unmarked) [Compound 76, 2-[[3-[(4-Methoxyphenyl)carbamoyl]-5,6-dihydro-4H-cyclopenta[b]thiophen-2-yl]carbamoyl]cyclohexanecarboxylic acid], 14.1 µM; for `O=C(Nc1ccc(Cl)cc1)c1c(NC(=O)C2CCCCC2C(=O)O)sc2c1CCS2` (centres unmarked) [Compound 40, 2-[[4-[(4-Chlorophenyl)carbamoyl]-2,3-dihydrothieno[2,3-b]thiophen-5-yl]carbamoyl] cyclohexanecarboxylic acid], 7.35 µM.
Same read-out and setting: as for `O=C(Nc1ccc2c(c1)COC2)c1c(NC(=O)C2CCCCC2C(=O)O)sc2c1CCC2` (centres unmarked) [Compound 30, 2-[[3-(1,3-Dihydroisobenzofuran-5-ylcarbamoyl)-5,6-dihydro-4H-cyclopenta[b]thiophen-2-yl]carbamoyl]cyclohexanecarboxylic acid], the figure is 19.6 µM.
On to `O=C(Nc1ccc(Cl)c(C(F)(F)F)c1)c1c(NC(=O)C2CCCCC2C(=O)O)sc2c1CCC2` (centres unmarked) [Compound 6, 2-[[3-[[4-Chloro-3-(trifluoromethyl)phenyl]carbamoyl]-5,6-dihydro-4H-cyclopenta[b]thiophen-2-yl]carbamoyl]cyclohexanecarboxylic acid], for which the IC50 was determined as 4.68 µM.
Take `NC(=O)N1CCOCC1C(=O)Nc1sc2c(c1C(=O)Nc1ccc(Cl)cc1)CCC2` (centres unmarked) [Compound 82, N3-[3-[(4-chlorophenyl)carbamoyl]-5,6-dihydro-4H-cyclopenta[b]thiophen-2-yl]morpholine-3,4-dicarboxamide]: the IC50 amounted to 4.4 µM.
The compound `O=C(Nc1ccc(Cl)cc1)c1c(NC(=O)[C@H]2CCCC[C@H]2C(=O)NO)sc2c1CCC2` (stereo in doubt) [Compound 90, N-(4-chlorophenyl)-2-[[2-(hydroxycarbamoyl)cyclohexanecarbonyl]amino]-5,6-dihydro-4H-cyclopenta[b]thiophene-3-carboxamide] came in with an IC50 of 9 µM.
In turn, `O=C(Nc1ccc(N2CCOCC2)cc1)c1c(NC(=O)C2CCCCC2C(=O)O)sc2c1CCC2` (centres unmarked) [Compound 15, 2-[[3-[(4-Morpholinophenyl)carbamoyl]-5,6-dihydro-4H-cyclopenta[b]thiophen-2-yl]carbamoyl]cyclohexanecarboxylic acid] came in with an IC50 of 11.2 µM.
Still for that read-out and setting: as for `O=C(Nc1ccc(F)c(F)c1)c1c(NC(=O)C2CCCCC2C(=O)O)sc2c1CCC2` (centres unmarked) [Compound 16, 2-[[3-[(3,4-Difluorophenyl)carbamoyl]-5,6-dihydro-4H-cyclopenta[b]thiophen-2-yl]carbamoyl]cyclohexanecarboxylic acid], the figure is 10.4 µM; as for `Cc1ccc(NC(=O)c2c(NC(=O)C3CC=CCC3C(=O)O)sc3c2CCCC3)cc1` (centres unmarked) [Compound 60, 6-[[3-(p-Tolylcarbamoyl)-4,5,6,7-tetrahydrobenzothiophen-2-yl]carbamoyl]cyclohex-3-ene-1-carboxylic acid], 54.8 µM; as for `CCc1c(C)sc(NC(=O)C2CCCCC2C(=O)O)c1C(=O)Nc1ccc(Cl)cc1` (centres unmarked) [Compound 59, 2-[[3-[(4-Chlorophenyl)carbamoyl]-4-ethyl-5-methyl-2-thienyl]carbamoyl]cyclohexanecarboxylic acid], 53.5 µM.
`CC(=O)N1CCC1C(=O)Nc1sc2c(c1C(=O)Nc1ccc(Cl)cc1)CCC2` (centres unmarked) [Compound 84, 1-acetyl-N-[3-[(4-chlorophenyl)carbamoyl]-5,6-dihydro-4H-cyclopenta[b]thiophen-2-yl]azetidine-2-carboxamide] showed an IC50 of 29.6 µM.
In turn, `O=C(Nc1ccc(Cl)cc1)c1c(NC(=O)C2CCCC(C(=O)O)C2)sc2c1CCC2` (centres unmarked) [Compound 99, 3-[[3-[(4-chlorophenyl)carbamoyl]-5,6-dihydro-4H-cyclopenta[b]thiophen-2-yl]carbamoyl]cyclohexanecarboxylic acid] gave an IC50 of 16.6 µM.
In turn, `O=C(Nc1ccc(Cl)cc1)c1c(NC(=O)C2CCCCC2C(=O)O)sc2c1CCC2` (stereo not drawn) [Compound 49, 2-[[3-[(4-Chlorophenyl)carbamoyl]-5,6-dihydro-4H-cyclopenta[b]thiophen-2-yl]carbamoyl]cyclohexane-trans-carboxylic acid] displayed an IC50 of 12.2 µM.
`O=C(Nc1ccc(Cl)cc1)c1c(NC(=O)C2CCCCC2C(=O)O)sc2c1CCCC2` (stereo not drawn) [Compound 61, 2-[[3-[(4-Chlorophenyl)carbamoyl]-4,5,6,7-tetrahydrobenzothiophen-2-yl]carbamoyl]cyclohexane-cis-carboxylic acid] returned an IC50 of 8.59 µM.
Consider `O=C(NC1CCC(F)(F)CC1)c1c(NC(=O)C2CCCCC2C(=O)O)sc2c1CCC2` (centres unmarked) [Compound 18, 2-[[3-[(4,4-Difluorocyclohexyl)carbamoyl]-5,6-dihydro-4H-cyclopenta[b]thiophen-2-yl]carbamoyl]cyclohexanecarboxylic acid], for which the IC50 stood at 33 µM.
Still for that read-out and setting: for `O=C(Nc1ccc2c(c1)OCO2)c1c(NC(=O)C2CCCCC2C(=O)O)sc2c1CCC2` (centres unmarked) [Compound 3, 2-[[3-(1,3-Benzodioxol-5-ylcarbamoyl)-5,6-dihydro-4H-cyclopenta[b]thiophen-2-yl]carbamoyl]cyclohexanecarboxylic acid] the value was 10.3 µM.
On the same count and under the same terms, as for `CS(=O)(=O)N1CCOCC1C(=O)Nc1sc2c(c1C(=O)Nc1ccc(Cl)cc1)CCC2` (centres unmarked) [Compound 93, N-[3-[(4-chlorophenyl)carbamoyl]-5,6-dihydro-4H-cyclopenta[b]thiophen-2-yl]-4-methylsulfonyl-morpholine-3-carboxamide], the figure is 12.7 µM.
The compound `O=C(Nc1ccc(Cl)cc1)c1ccsc1NC(=O)C1C2CCC(CC2)C1C(=O)O` (centres unmarked) [Compound 71, 2-[[3-[(4-Chlorophenyl)carbamoyl]-2-thienyl]carbamoyl]bicyclo[2.2.2]octane-3-carboxylic acid] showed an IC50 of 12.2 µM.
Consider `CS(=O)(=O)c1ccc(NC(=O)c2c(NC(=O)C3CCCCC3C(=O)O)sc3c2CCC3)cc1` (centres unmarked) [Compound 31, 2-[[3-[(4-Methylsulfonylphenyl)carbamoyl]-5,6-dihydro-4H-cyclopenta[b]thiophen-2-yl]carbamoyl]cyclohexanecarboxylic acid], for which the IC50 was 27.3 µM.
